In PubChem BioAssay (NCI):
“And” between values parts separate entries of the source, which are not always exact repeats. Identical values can stand only once.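 Test compounds were applied to cells in 96-well plates for 48 hours at 5 doses. Abbreviation: GI50, concentration required for 50% inhibition of growth. Definition used: TGI = concentration required for complete inhibition of growth.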

Key:
Assay in all cases: NCI-60 cell line screen, 48 h
TK-10 renal = test system: TK-10 renal
SF-268 CNS = test system: SF-268 CNS
MCF7 breast = test system: MCF7 breast
MDA-MB-435 = test system: MDA-MB-435
MALME-3M melanoma = test system: MALME-3M melanoma
T-47D breast = test system: T-47D breast
RXF 393 renal = test system: RXF 393 renal
CAKI-1 renal = test system: CAKI-1 renal
SNB-19 CNS = test system: SNB-19 CNS
NCI-H23 lung = test system: NCI-H23 lung
SK-OV-3 ovarian = test system: SK-OV-3 ovarian
MDA-MB-231 breast = test system: MDA-MB-231 breast

COc1ccc(C2c3cc4c(cc3OC(N3CCOCC3)C2C)OCO4)cc1 (centres undefined)
TGI (TK-10 renal): > 100 µM | TGI (SF-268 CNS): > 100 µM | TGI (MCF7 breast): > 71.5 µM | TGI (MDA-MB-435): > 60.4 µM | TGI (MALME-3M melanoma): 40.7 µM | TGI (T-47D breast): 61.6 µM | TGI (RXF 393 renal): 63.3 µM | TGI (CAKI-1 renal): 55.1 µM | TGI (SNB-19 CNS): > 96.7 µM | TGI (NCI-H23 lung): > 100 µM

CC(=O)O[C@]12CCCCCC1C1(O)C(O)CCCCC12 (some centres undefined)
TGI (TK-10 renal): > 100 µM | TGI (SF-268 CNS): > 100 µM | TGI (MALME-3M melanoma): > 100 µM | TGI (RXF 393 renal): > 100 µM | TGI (SK-OV-3 ovarian): > 100 µM | TGI (SNB-19 CNS): > 100 µM | TGI (NCI-H23 lung): > 100 µM

O=Cc1ccc(-c2ccc(-c3ccc(CO)s3)o2)s1
TGI (TK-10 renal): 0.627 µM | TGI (SF-268 CNS): > 76.1 µM | TGI (MCF7 breast): > 100 µM | TGI (MDA-MB-231 breast): > 80.3 µM | TGI (MDA-MB-435): > 49.3 µM | TGI (MALME-3M melanoma): > 66.8 µM | TGI (T-47D breast): 62.3 µM | TGI (RXF 393 renal): 47.6 µM | TGI (SK-OV-3 ovarian): 78.8 µM | TGI (SNB-19 CNS): > 100 µM | TGI (NCI-H23 lung): > 76.7 µM

CN1CC=C(c2c(N)nc(N)[nH]c2=O)CC1
TGI (SF-268 CNS): > 100 µM | TGI (MCF7 breast): > 100 µM | TGI (MDA-MB-231 breast): > 100 µM | TGI (MDA-MB-435): > 100 µM | TGI (MALME-3M melanoma): > 100 µM | TGI (T-47D breast): > 100 µM | TGI (RXF 393 renal): > 100 µM | TGI (SK-OV-3 ovarian): > 100 µM | TGI (CAKI-1 renal): > 100 µM | TGI (SNB-19 CNS): > 100 µM | TGI (NCI-H23 lung): > 100 µM

CCOP(=O)(OCC)/C(C#N)=C/c1ccc(-c2cc(C(F)(F)F)cc(C(F)(F)F)c2)o1
TGI (TK-10 renal): 35.5 µM | TGI (SF-268 CNS): 33.3 µM | TGI (MCF7 breast): 20 µM | TGI (MDA-MB-231 breast): 26.8 µM | TGI (MDA-MB-435): 29 µM | TGI (T-47D breast): 40 µM | TGI (SNB-19 CNS): 32 µM | TGI (NCI-H23 lung): 31.1 µM

Cc1n[n+](Cc2ccccc2)c2sc(N)nn12
TGI (TK-10 renal): > 100 µM | TGI (SF-268 CNS): > 100 µM | TGI (MCF7 breast): > 100 µM | TGI (MDA-MB-435): > 100 µM | TGI (MALME-3M melanoma): > 100 µM | TGI (T-47D breast): > 100 µM | TGI (RXF 393 renal): > 100 µM | TGI (SK-OV-3 ovarian): > 100 µM | TGI (CAKI-1 renal): > 100 µM | TGI (SNB-19 CNS): > 100 µM | TGI (NCI-H23 lung): > 100 µM

CC(=O)OC(CCC1(C)OC1COc1ccc(CCNC(=O)C=C(C)C)cc1)C(C)(C)OC(C)=O (centres undefined)
TGI (TK-10 renal): > 100 µM | TGI (SF-268 CNS): > 100 µM | TGI (MDA-MB-231 breast): > 100 µM | TGI (MDA-MB-435): 40.4 µM | TGI (MALME-3M melanoma): > 100 µM | TGI (T-47D breast): > 100 µM | TGI (RXF 393 renal): > 31.6 µM | TGI (SK-OV-3 ovarian): > 100 µM | TGI (CAKI-1 renal): > 100 µM | TGI (SNB-19 CNS): > 100 µM | TGI (NCI-H23 lung): > 100 µM

CN1CCN(/C(N)=C(\C#N)C(=O)Nc2ccc(Cl)cc2)CC1
TGI (MCF7 breast): > 100 µM | TGI (MDA-MB-435): > 100 µM | TGI (T-47D breast): > 100 µM | TGI (SK-OV-3 ovarian): > 100 µM | TGI (CAKI-1 renal): > 100 µM | TGI (SNB-19 CNS): > 100 µM | TGI (NCI-H23 lung): > 100 µM

O=C(NCCN1CCOCC1)c1ccc(I)cc1
TGI (TK-10 renal): > 100 µM | TGI (SF-268 CNS): > 100 µM | TGI (MCF7 breast): > 100 µM | TGI (SK-OV-3 ovarian): > 100 µM | TGI (CAKI-1 renal): > 100 µM | TGI (SNB-19 CNS): > 100 µM | TGI (NCI-H23 lung): > 100 µM

Cc1ccc(S(=O)(=O)C2=C(C(C)C)N=NC2(C)C)cc1
TGI (TK-10 renal): > 100 µM | TGI (SF-268 CNS): > 100 µM | TGI (MCF7 breast): > 100 µM | TGI (MDA-MB-231 breast): > 100 µM | TGI (MDA-MB-435): > 100 µM | TGI (T-47D breast): > 100 µM | TGI (RXF 393 renal): > 100 µM | TGI (CAKI-1 renal): > 100 µM | TGI (SNB-19 CNS): > 100 µM | TGI (NCI-H23 lung): > 100 µM

COc1cc2nc(-c3cccs3)nc(Cl)c2cc1OC
TGI (TK-10 renal): > 100 µM | TGI (SF-268 CNS): > 100 µM | TGI (MCF7 breast): 76 µM | TGI (MDA-MB-231 breast): > 100 µM | TGI (MDA-MB-435): > 100 µM | TGI (MALME-3M melanoma): > 100 µM | TGI (T-47D breast): > 100 µM | TGI (SK-OV-3 ovarian): > 100 µM | TGI (CAKI-1 renal): > 100 µM | TGI (SNB-19 CNS): > 100 µM | TGI (NCI-H23 lung): > 100 µM

CCC1CC(O)c2c(O)c3c(c(O)c2C1O)C(=O)c1cccc(O)c1C3=O (centres undefined) (tested in a mixture with another compound)
TGI (SF-268 CNS): 0.501 µM | TGI (MCF7 breast): 6.04 µM | GI50 (MDA-MB-231 breast): 0.0118 µM | TGI (MDA-MB-231 breast): 0.164 µM and 0.404 µM | TGI (MDA-MB-435): 0.0713 µM and 0.0207 µM | TGI (MALME-3M melanoma): 0.0547 µM | TGI (T-47D breast): 0.18 µM and 0.0352 µM | TGI (RXF 393 renal): 0.0326 µM and 0.0459 µM | GI50 (SK-OV-3 ovarian): 0.0111 µM | TGI (SK-OV-3 ovarian): 5.7 µM | TGI (CAKI-1 renal): 0.0706 µM | TGI (SNB-19 CNS): 0.929 µM and 1.34 µM | TGI (NCI-H23 lung): 0.0795 µM and 0.186 µM

COc1ccc(/C(Cl)=C(\C#N)c2ccc(OC)c(OC)c2)cc1OC
TGI (TK-10 renal): > 100 µM | TGI (MCF7 breast): > 100 µM | TGI (MDA-MB-231 breast): > 100 µM | TGI (MDA-MB-435): > 100 µM | TGI (T-47D breast): > 100 µM | TGI (RXF 393 renal): > 100 µM | TGI (CAKI-1 renal): > 100 µM | TGI (SNB-19 CNS): > 100 µM | TGI (NCI-H23 lung): > 100 µM

CCOC(=O)CCC1(CCC(=O)OCC)CCCCCCCCC(CCC(=O)OCC)(CCC(=O)OCC)C(=O)C1=O
TGI (TK-10 renal): > 100 µM | TGI (SF-268 CNS): > 100 µM | TGI (MCF7 breast): > 100 µM | TGI (MDA-MB-435): > 100 µM | TGI (MALME-3M melanoma): > 100 µM | TGI (T-47D breast): > 100 µM | TGI (SK-OV-3 ovarian): > 100 µM | TGI (CAKI-1 renal): > 100 µM | TGI (SNB-19 CNS): > 100 µM | TGI (NCI-H23 lung): > 100 µM

CS(=O)(=O)N1CC(CCl)c2ccc(O)cc21 (centres undefined)
TGI (TK-10 renal): 6.98 µM | TGI (SF-268 CNS): 3.61 µM | TGI (MCF7 breast): > 100 µM | TGI (MDA-MB-231 breast): 6.16 µM | TGI (MDA-MB-435): 3.86 µM | TGI (MALME-3M melanoma): 5 µM | TGI (T-47D breast): 48.2 µM | TGI (RXF 393 renal): 4.19 µM | TGI (CAKI-1 renal): 12.3 µM | TGI (NCI-H23 lung): 7.6 µM

NCCCNCCCCN1CCOC1=O
TGI (TK-10 renal): > 100 µM | TGI (SF-268 CNS): > 100 µM | TGI (MCF7 breast): > 100 µM | TGI (MDA-MB-231 breast): > 100 µM | TGI (MDA-MB-435): > 100 µM | TGI (MALME-3M melanoma): > 100 µM | TGI (T-47D breast): > 100 µM | TGI (SK-OV-3 ovarian): > 100 µM | TGI (CAKI-1 renal): > 100 µM | TGI (SNB-19 CNS): > 100 µM | TGI (NCI-H23 lung): > 100 µM

Cc1ccc2c(c1)CC1(Cc3cccc(C)c3C1=O)C2=O (centres undefined)
TGI (TK-10 renal): > 100 µM | TGI (SF-268 CNS): > 100 µM | TGI (MCF7 breast): > 10 µM | TGI (MDA-MB-231 breast): > 100 µM | TGI (MDA-MB-435): > 10 µM | TGI (MALME-3M melanoma): > 100 µM | TGI (T-47D breast): > 10 µM | TGI (RXF 393 renal): > 100 µM | TGI (SK-OV-3 ovarian): > 100 µM | TGI (NCI-H23 lung): > 100 µM

O=C(Cn1c2ccc(Br)cc2c2nc3ccccc3nc21)NNC(=S)NC1CCCCC1
TGI (TK-10 renal): 28.7 µM | TGI (SF-268 CNS): 39.6 µM | TGI (MDA-MB-231 breast): 31.6 µM | TGI (MDA-MB-435): 34.2 µM | TGI (MALME-3M melanoma): 39.5 µM | TGI (T-47D breast): 45.8 µM | TGI (RXF 393 renal): 23.4 µM | TGI (SK-OV-3 ovarian): 70.8 µM | TGI (CAKI-1 renal): 38.6 µM | TGI (SNB-19 CNS): 33.8 µM | TGI (NCI-H23 lung): 30.5 µM

O=c1[nH]nc(Cc2ccc(Cl)cc2)n1/N=C/c1cccs1
TGI (SF-268 CNS): 42.9 µM | TGI (MCF7 breast): > 100 µM | TGI (MDA-MB-231 breast): 49.7 µM | TGI (MDA-MB-435): > 100 µM | TGI (MALME-3M melanoma): > 100 µM | TGI (T-47D breast): > 100 µM | TGI (RXF 393 renal): 32.7 µM | TGI (SK-OV-3 ovarian): > 100 µM | TGI (CAKI-1 renal): > 100 µM | TGI (SNB-19 CNS): 64 µM | TGI (NCI-H23 lung): > 100 µM

COCCn1cnc2c(Cl)nc(Nc3ccccc3)nc21
TGI (TK-10 renal): > 100 µM | TGI (SF-268 CNS): > 100 µM | TGI (MCF7 breast): > 100 µM | TGI (MDA-MB-231 breast): 75.6 µM | TGI (MDA-MB-435): 40.7 µM | TGI (T-47D breast): > 100 µM | TGI (RXF 393 renal): 47.4 µM | TGI (SK-OV-3 ovarian): > 100 µM | TGI (SNB-19 CNS): > 100 µM | TGI (NCI-H23 lung): > 100 µM
